Reference: paper PMC9060532 (RSC Advances, 2019)
Values belong to the compound of their own block, whether it stands above or below them.

Experiments:
[1] = Stability of bornyl caffeate and caffeic acid in rat plasma; type: in vitro ADME; settings: for Autosampler stability Concentration measured / Autosampler stability Stability (%): processed rat plasma QC, autosampler 20 °C 24 h; for Autosampler stability Concentration measured / Autosampler stability Stability (%) / Short-term Concentration measured / Short-term Stability (%) / Freeze–thaw Concentration measured / Freeze–thaw Stability (%) / Long-term Concentration measured / Long-term Stability (%): n = 6; for Short-term Concentration measured / Short-term Stability (%) / Freeze–thaw Concentration measured / Freeze–thaw Stability (%) / Long-term Concentration measured / Long-term Stability (%): rat plasma; for Short-term Concentration measured / Short-term Stability (%): room temperature 24 h; for Freeze–thaw Concentration measured / Freeze–thaw Stability (%): three freeze–thaw cycles (−20 °C 24 h); for Long-term Concentration measured / Long-term Stability (%): −20 °C 3 weeks
[2] = Pharmacokinetic study in rats, plasma by HPLC-Ion-Trap-MS/MS; type: in vivo, Sprague-Dawley rats
[3] = Metabolite identification in rat plasma, urine and feces by HPLC-Q-TOF MS/MS; type: in vivo, Sprague-Dawley rats; settings: rats, bornyl caffeate ig 30 mg kg^−1; p plasma, u urine, f feces
[4] = CA in rat plasma after CA ig 17 mg kg^−1, n = 6
[5] = Sprague-Dawley, rat, plasma, po, 17 mg/kg

Autosampler stability Concentration measured ([1]; 4 ng mL^−1 added): 3.93 ± 0.16 ng/mL | Autosampler stability Stability (%) ([1]; 4 ng mL^−1 added): 98.25% | Autosampler stability Concentration measured ([1]; 200 ng mL^−1 added): 191.9 ± 6.19 ng/mL | Autosampler stability Stability (%) ([1]; 200 ng mL^−1 added): 95.95% | Autosampler stability Concentration measured ([1]; 3000 ng mL^−1 added): 2991.17 ± 12.48 ng/mL | Autosampler stability Stability (%) ([1]; 3000 ng mL^−1 added): 99.7% | Short-term Concentration measured ([1]; 4 ng mL^−1 added): 3.97 ± 0.15 ng/mL | Short-term Stability (%) ([1]; 4 ng mL^−1 added): 99.38% | Freeze–thaw Concentration measured ([1]; 4 ng mL^−1 added): 3.77 ± 0.14 ng/mL | Freeze–thaw Stability (%) ([1]; 4 ng mL^−1 added): 94.29% | Long-term Concentration measured ([1]; 4 ng mL^−1 added): 4.03 ± 0.18 ng/mL | Long-term Stability (%) ([1]; 4 ng mL^−1 added): 100.79% | Short-term Concentration measured ([1]; 200 ng mL^−1 added): 196.41 ± 4.57 ng/mL | Short-term Stability (%) ([1]; 200 ng mL^−1 added): 98.2% | Freeze–thaw Concentration measured ([1]; 200 ng mL^−1 added): 202.1 ± 6.48 ng/mL | Freeze–thaw Stability (%) ([1]; 200 ng mL^−1 added): 101.05% | Long-term Concentration measured ([1]; 200 ng mL^−1 added): 197.22 ± 6.86 ng/mL | Long-term Stability (%) ([1]; 200 ng mL^−1 added): 98.61% | Short-term Concentration measured ([1]; 3000 ng mL^−1 added): 3009.81 ± 6.45 ng/mL | Short-term Stability (%) ([1]; 3000 ng mL^−1 added): 100.33% | Freeze–thaw Concentration measured ([1]; 3000 ng mL^−1 added): 2835.08 ± 9.86 ng/mL | Freeze–thaw Stability (%) ([1]; 3000 ng mL^−1 added): 94.23% | Long-term Concentration measured ([1]; 3000 ng mL^−1 added): 2990.99 ± 4.97 ng/mL | Long-term Stability (%) ([1]; 3000 ng mL^−1 added): 99.7% | stability in plasma (in words) ([1]; room temperature for 24 h, −20 °C for 3 weeks, or autosampler for 24 h): stable | T 1/2Ka [2, 4]: 7.2 ± 1.8 min | T 1/2α1 [2, 4]: 24 ± 5.4 min | AUC(0-inf) [2, 5]: 821 ± 86.2 ng·h/mL | AUC(0-t) [2, 5]: 787 ± 80.3 ng·h/mL | Cmax [2, 5]: 450 ± 13.8 ng/mL | Tmax [2, 5]: 15 ± 0.6 min
Compound: O=C(O)/C=C/c1ccc(O)c(O)c1 [Caffeic acid]

Location (samples in which parent or metabolite was detected) [3]: urine and feces
Compound: O=C(O)c1ccccc1 [M8, Benzoic acid]

Location (samples in which parent or metabolite was detected) [3]: found in rat feces alone
Compound: COc1cc(CCC(=O)O)ccc1O [M9a, Dihydroferulic acid]

More lines, now with the values behind:

Compound: COc1ccc(/C=C/C(=O)O)cc1O [M14b, Isoferulic acid]
Location (samples in which parent or metabolite was detected) [3]: observed in all the three kinds of samples

Compound: O=C(O)CCc1ccc(O)c(O)c1 [M4, Dihydrocaffeic acid]
Location (samples in which parent or metabolite was detected) [3]: observed in all the three kinds of samples
